The values that follow come from US5438064A, “Derivatives of 4-anilinoquinoline-3-carboxamide as analgesic agents” (American Home Products Corporation, priority 1991, dated 1995).

Structures can show the parent of a compound that is named as a salt.

One assay concerns the target T1, BK2 receptor sites in guinea pig ileum (Cavia porcellus, UniProt O70526).
T1 construct: The tissue is cut into small pieces and homogenized in 20 volumes of homogenization buffer; from tissue; host or cells: guinea pig distal ileum, membrane homogenate (Hartley strain, male, adult; animals from Charles River)
T1 sequence (O70526 1-372): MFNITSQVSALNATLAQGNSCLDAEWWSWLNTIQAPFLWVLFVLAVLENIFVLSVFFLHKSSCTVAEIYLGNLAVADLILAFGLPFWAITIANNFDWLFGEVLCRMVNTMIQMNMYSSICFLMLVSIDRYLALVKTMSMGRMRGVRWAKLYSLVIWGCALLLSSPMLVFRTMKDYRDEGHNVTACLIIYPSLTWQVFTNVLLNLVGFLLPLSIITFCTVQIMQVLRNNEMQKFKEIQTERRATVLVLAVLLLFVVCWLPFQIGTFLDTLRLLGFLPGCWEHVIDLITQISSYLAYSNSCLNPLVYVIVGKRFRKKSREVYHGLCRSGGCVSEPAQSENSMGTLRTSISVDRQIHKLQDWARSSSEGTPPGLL
The assay can be described thus: Bradykinin Receptor Binding Assay (competition with 3H-bradykinin for BK2 receptor sites in guinea pig ileum). The conditions noted are these: 80 pM 3H-BK, guinea pig ileum homogenate, 90 min, 25° C., pH 6.8; read-out: Bradykinin Binding in G.P. ileum, IC50. As to the method:
1. Bradykinin Receptor Binding Assay
The following procedure is used to identify compounds which compete specifically with triturated bradykinin (^3 H-BK) for BK2 receptor sites in guinea pig ileum.
The distal portion of adult, male guinea pig (Hartley strain, 350-500 g, Charles River) ileum is removed and placed in ice cold homogenization buffer [[…] N-tris (hydroxymethyl)methyl-2-aminoethane sulfonic acid (TES), 1 mM 1, 10-phenanthroline, adjusted to pH 6.8 with ammonium hydroxide].
The contents of the ileal lumen are rinsed out with cold homogenization buffer. The tissue is cut into small pieces and homogenized in 20 volumes of homogenization buffer 3 times of 10 seconds duration using a Brinkman Polytron homogenizer equipped with a PTA 10 TS generator at setting 5.
The homogenate is fillered through a surgical gauze sponge and centrifuged at 50,000 × g for 20 minutes at 4° C. The supernatant fluid is discarded and the homogenization and centrifugation procedures are repeated. After discarding the supernatant fluid, the final pellet is resuspended in 40 volumes of assay buffer (25 mM TES, pH 6.8, 1 mM 1,10-phenanthroline, 1 mM dithiothreitol, 2 μM captopril, 140 μg/ml bacitracin and 0.1% bovine serum albumin (BSA)). The homogenate is filtered once more through a surgical gauze sponge and kept on ice until used. The assay is performed using only polypropylene pipet tips and polypropylene test tubes. Each tube receives 100 μl of 800 pM ^3 H-BK, 100 μl of the test compound solution […] or vehicle (assay buffer), and 100 μl of 25 mg/ml tissue homogenate in a total volume of 1 ml. The final concentration of 3H-BK is 80 pM. The final tissue concentration is 2.5 mg/ml. Compounds are screened at 100 μM. Compounds which are not soluble in water are first solubilized in DMSO and then diluted 1:100 in the assay buffer. Addition of 100 μl of this sample to the assay will yield a final DMSO concentration of 0.1% which has been shown not to affect the binding assay. Nonspecific binding is determined in the presence of 1 μM unlabeled bradykinin. All determinmions are made in triplicate. Three 100 μl aliquots of the 800 pM 3H-BK working solution are added directly to scintillation vials to determine the total added radioactivity.
The tubes are incubated for 90 minutes at 25° C. while being gently agitated on an orbital shaker. Bound ligand is separated from free ligand, using Whatman GF/B glass fiber filters (pretreated with 0.1% aqueous polyethyleneimine made neutral with HCl). A Brandel receptor binding harvester is used. Assay tubes and glass fiber filters are rinsed three times with 3 ml of cold physiological saline.
The filter discs are transferred to 20 ml scintillation vials. Ten ml of aqueous sample LSC cocktail (Aquassure, New England Nuclear) is added to each vial. After capping, the vials are agitated for 5 minutes on an orbital shaker. The samples are counted for ten minutes in a refrigerated liquid scintillation counter to obtain the following values: Bt (total binding), Bns (non-specific binding) and Bx (total binding in the presence of the test compound). From these values, control specific binding (C=Bt -Bns), specific binding in the presence of the test compound (D=Bx -Bns), percent of control (D/C ×100) and percent inhibition (1-D/C)×100 are calculated.
If 50% inhibition is obtained at the screening concentration, the compound is considered active and a dilution series (typically 1:3 serial dilutions of the test compound) is tested in the binding assay. After calculation of the percent of control of each dilution, the values are analyzed and the IC50 with its 95% confidence limits is determined.
In the case of `CCN(CC)C(=O)CCCCCN1CCC(NC(=O)c2cnc3c(OC)cccc3c2Nc2ccc(C(=O)NC3CCN(Cc4ccccc4)CC3)cc2)CC1` [Ex. 9, N-[1-[6-(Diethylamino)-6-oxohexyl]-4-piperidinyl]-8-methoxy-4-[[4-[[[1-(phenylmethyl)-4-piperidinyl]amino]carbonyl]-phenyl]amino]-3-quinolinecarboxamide], the IC50 (as a rule, the concentration at which inhibition is half-maximal) stood at 2.6 µM.
Still for that read-out and setting: next, `CCN(CC)C(=O)CCCCCN1CCC(N(Cc2ccc(Nc3c(C(=O)NC4CCN(Cc5ccccc5)CC4)cnc4c(OC)cccc34)cc2)C(=O)CCC2CCCC2)CC1` [Ex. 6]: 1.44 µM; `CCCCN1CCC(NC(=O)c2ccc(Nc3c(C(=O)NC4CCN(Cc5ccccc5)CC4)cnc4c(OC)cccc34)cc2)CC1` [Ex. 13, 4-[[4-[[(1-Butyl-4-piperidinyl)amino]carbonyl]phenyl]amino]-8-methoxy-N-[1-(phenylmethyl)-4-piperidinyl]-3-quinoinecarboxamide]: 2.9 µM; `COc1cccc2c(Nc3ccc(C(=O)NC4CCN(Cc5ccccc5)CC4)cc3)c(C(=O)NC3CCN(Cc4ccccc4)CC3)cnc12` [Ex. 3]: 0.093 µM.
In the case of `COc1cccc2c(Nc3ccc(C(=O)NC4CCN(Cc5ccccc5)CC4)cc3)c(C(=O)NC3CCN(Cc4cccc(C(F)(F)F)c4)CC3)cnc12` [Ex. 16], the IC50 turned out to be 0.25 µM.
Regarding `COc1cccc(CN2CCC(NC(=O)c3cnc4c(OC)cccc4c3Nc3ccc(C(=O)NC4CCN(Cc5ccccc5)CC4)cc3)CC2)c1` [Ex. 15, N-[1-[(3-Methoxyphenyl)methyl]-4-piperidinyl]-8-methoxy-4-[[4-[[[1-(phenylmethyl)-4-piperidinyl]amino]carbonyl]phenyl]amino]-3-quinoline-carboxamide], the IC50 amounted to 0.22 µM.
Turning to `COc1cccc2c(Nc3ccc(C(=O)NC4CCN(Cc5ccccc5)CC4)cc3)c(C(=O)NCCN(C)C)cnc12` [Ex. 4, N-[2-(Dimethylamino)ethyl]-8-methoxy-4-[[4-[[[1-(phenylmethyl) -4-piperidinyl]amino]carbonyl]phenyl]amino]-3-quinolinecarboxamide trifluoroacetate (1:4)], the IC50 worked out at 2.7 µM.
Still for that read-out and setting: to `O=C(NC1CCN(Cc2ccccc2)CC1)c1ccc(Nc2c(C(=O)NC3CCN(Cc4ccccc4)CC3)cnc3cc(Cl)ccc23)cc1` [Ex. 17, 7-Chloro-N-[1-(phenylmethyl)-4-piperidinyl]-4-[[4-[[[1-(phenylmethyl)-4-piperidinyl]amino]carbonyl]phenyl]amino]-3-quinolinecarboxamide] belongs 0.43 µM; to `CCN(CCN(C)C)C(=O)c1cnc2c(OC)cccc2c1Nc1ccc(C(=O)NC2CCN(Cc3ccccc3)CC2)cc1` [Ex. 5, N-[2-(Dimethylamino)ethyl]-N-ethyl-8-methoxy-4-[[4-[[[1-(phenylmethyl)-4-piperidinyl]amino]carbonyl]phenyl]amino]-3-quinolinecarboxamide], 2.9 µM; to `COc1cccc2c(Nc3ccc(C(=O)NC4CCN(Cc5ccccc5)CC4)cc3)c(C(=O)NC3CCN(CCc4ccccc4)CC3)cnc12` [Ex. 12, N-[1-(2-Phenylethyl)-4-piperidinyl]-8-methoxy-4-[[4-[[[1-(phenylmethyl)-4piperidinyl]amino]carbonyl]phenyl]amino]-3-quinolinecarboxamide], 0.67 µM.
As to `COc1cccc2c(Nc3ccc(C(=O)NC4CCN(Cc5ccccc5)CC4)cc3)c(C(=O)NC3CCN(Cc4cccc(Cl)c4)CC3)cnc12` [Ex. 2], the half-maximal inhibitory concentration (IC50) was 0.079 µM.
Turning to `COc1cccc2c(Nc3ccc(C(=O)NC4CCN(Cc5ccccc5)CC4)cc3)c(C(=O)NC3CCN(Cc4ccc(C(C)(C)C)cc4)CC3)cnc12` [Ex. 1, N-[1-[4-(1,1-Dimethylethyl)phenyl]methyl-4-piperidinyl]-8-methoxy-4-[[4-[[[1-(phenylmethyl) -4-piperidinyl]amino]carbonyl]phenyl]amino]-3-quinolinecarboxamide], the IC50 was 0.43 µM.
Still for that read-out and setting: to `CCN(CC)C(=O)c1cccc(CN2CCC(NC(=O)c3cnc4c(OC)cccc4c3Nc3ccc(C(=O)NC4CCN(Cc5ccccc5)CC4)cc3)CC2)c1` [Ex. 11] belongs 1.6 µM; to `COc1cccc2c(Nc3ccc(C(=O)NC4CCN(Cc5ccccc5)CC4)cc3)c(C(=O)N(C)C3CCN(C)CC3)cnc12` [Ex. 14], 1.4 µM.
On the same count and under the same terms, to `CCCCN1CCC(NC(=O)c2cnc3c(OC)cccc3c2Nc2ccc(C(=O)NC3CCN(Cc4ccccc4)CC3)cc2)CC1` [Ex. 8, N-(1-Butyl-4-piperidinyl)-8-methoxy-4-[[4-[[[1-(phenylmethyl) -4-piperidinyl]amino]carbonyl]phenyl]amino]-3-quinolinecarboxamide] belongs 1.2 µM.

Staying with this assay, now noted: at 10 μM; 80 pM 3H-BK, guinea pig ileum homogenate; read-out: Bradykinin Binding in G.P. ileum, % inhibition at 10 μM.
Turning to `CCCCN1CCC(NCc2ccc(Nc3c(C(=O)NC4CCN(Cc5ccccc5)CC4)cnc4c(OC)cccc34)cc2)CC1` [Ex. 7, 4-[[4-[[(1-Butyl-4-piperidinyl)amino]methyl]phenyl]amino]-8-methoxy-N-[1-(phenyimethyl)-4-piperidinyl]-3-qinolinecarboxamide], the inhibition (usually how much of the control response was suppressed) at 10 µM worked out at 50.5%.
On the same count and under the same terms, next, `CCCCN1CCC(N(Cc2ccc(Nc3c(C(=O)NC4CCN(Cc5ccccc5)CC4)cnc4c(OC)cccc34)cc2)C(=O)CCC)CC1` [Ex. 10]: 42.8%.

For a further assay, the system named is bradykinin-induced writhing in mice. In words: Bradykinin-induced Writhing in Mice. The format is in vivo, mice (male CD-1). The settings on record: 30 mg/kg i.p., mice. As to the method:
2. Bradykinin-induced Writhing in Mice
Male CD-1 Charles River mice (14-19g), fasted overnight but having free access to water, in groups of 10 (control and treated) are given an intraperitoneal (j.p.) injection of 1 mg/kg of prostaglandin PGE2 in phosphate buffered saline (10 μl/g) and after 20 minutes each mouse receives an i.p. injection of bradykinin (0.5 mg/kg in saline). The treatment group of mice receive a test compound either orally 1 hour prior to administration of bradykinin or i.p. 2 minutes prior to administration of bradykinin. Test compounds are given in saline if soluble or as a suspension in 0.5% Tween 80. The percent inhibition of writhing obtained is calculated as follows: [formula] where C is the mean number of writhes in the control group and D is the mean number of writhes in the drag group. If 30% inhibition or higher is observed with the screening dose, the test compound is considered active. Several logarithmically spaced doses will be tested and the ED50 determined by regression methods with inverse prediction.
On the technique in general: In writhing tests, fewer writhes than in controls are read as antinociception.
As for `CCN(CC)C(=O)CCCCCN1CCC(NC(=O)c2cnc3c(OC)cccc3c2Nc2ccc(C(=O)NC3CCN(Cc4ccccc4)CC3)cc2)CC1` [Ex. 9, N-[1-[6-(Diethylamino)-6-oxohexyl]-4-piperidinyl]-8-methoxy-4-[[4-[[[1-(phenylmethyl)-4-piperidinyl]amino]carbonyl]-phenyl]amino]-3-quinolinecarboxamide], the “Bradykinin-induced writhing, % inhibition at 30 mg/kg i.p.” value came out at 46%.
Turning to `COc1cccc2c(Nc3ccc(C(=O)NC4CCN(Cc5ccccc5)CC4)cc3)c(C(=O)NC3CCN(Cc4ccccc4)CC3)cnc12` [Ex. 3], the “Bradykinin-induced writhing, % inhibition at 30 mg/kg i.p.” value is 20%.
The same measure, in the same setting: to `CCCCN1CCC(NC(=O)c2cnc3c(OC)cccc3c2Nc2ccc(C(=O)NC3CCN(Cc4ccccc4)CC3)cc2)CC1` [Ex. 8, N-(1-Butyl-4-piperidinyl)-8-methoxy-4-[[4-[[[1-(phenylmethyl) -4-piperidinyl]amino]carbonyl]phenyl]amino]-3-quinolinecarboxamide] belongs 32%.

The same assay, now with this note: 100 mg/kg p.o., mice.
With `CC(C(=O)O)c1cccc(C(=O)c2ccccc2)c1` (stereo not drawn) [Ketoprofen], the “Bradykinin-induced writhing, % inhibition” value is on record as 52%.

Still in this assay, the particulars now being: 200 mg/kg p.o., mice.
As to `CC(C)Cc1ccc(C(C)C(=O)O)cc1` (stereo not drawn) [Ibuprofen], the “Bradykinin-induced writhing, % inhibition” value is on record as 43%.

Staying with this assay, now noted: 300 mg/kg p.o., mice.
For `CC(=O)Nc1ccc(O)cc1` [Acetaminophen], the “Bradykinin-induced writhing, % inhibition” value is 20%.

Still in this assay, the particulars now being: Mus musculus, po, read-out: Bradykinin-induced writhing, ED50.
On to `CN1CC[C@]23c4c5ccc(O)c4O[C@H]2[C@@H](O)C=C[C@H]3[C@H]1C5` [Morphine], for which the ED50 (commonly the midpoint of the dose-response relation) turned out to be 4.5 mg/kg.
